Laboratory results from patent US20230114123A1, “METHOD OF STIMULATING ASYMMETRIC DIVISION OF SATELLITE STEM CELLS” (Ottawa Hospital Research Institute, priority 2017, published 2023).

How the values were obtained:
[1] = tested on: regenerating mdx TA muscles; test: Cardiotoxin-induced injury of TA muscle in mdx mice, intramuscular treatment; assay type: in vivo, mouse
From the text: Previously, the inventors observed that dystrophin- or Dag1-deficient muscles generate reduced numbers of Pax7-expressing and Myog-expressing cells following CTX-injury.
PTP1b inhibitor was concurrently administered with cardiotoxin into mdx TA muscles and supplemented again 2 days after the injury (FIG. 13A). To assess the muscle stem cell function after injury and the regenerative capacity of the treated mdx muscles, the inventors examined the histology of the regenerating muscles 10 days post cardiotoxin injection. Whereas the control vehicle treated muscles still contained large areas of necrotic fibers (msIgG+), the muscles treated with PTP1b inhibitors were better regenerated as evidenced by the presence of 50% […] Myh3-expressing myofibers (FIG. 13B). […] These findings are consistent with PTP1b inhibition inducing an increase in EGFR signaling and accelerated de novo myofiber formation in regenerating mdx muscles (FIG. 14).
Electroporation and Cardiotoxin Injury. Intramuscular (i.m.) cardiotoxin injections (Latoxan, 50 μl of 10 μM solution in saline) were injected directly into the right TA muscle through the skin under general anesthesia. For pharmacological inhibition, Lapatinib ditosylate (1 mM in DMSO; Santa Cruz Biotechnology), the PTP1b inhibitor CAS 765317-72-4 (10 mM in DMSO; Santa Cruz Biotechnologies) was mixed into the cardiotoxin solution for a final concentration of 1 μM or 20 μM, respectively; equal dilution of DMSO was used as vehicle control. Supplemental injection of inhibitors (20 μL of 2.5 μM of Lapatibin or 50 μM of PTP1b inhibitor diluted in saline) was performed 2 days after cardiotoxin injection.
Muscle samples were embedded in OCT embedding compound and frozen in liquid nitrogen cooled isopentane and cryosectioned in 12-μm slices. Cross-sections were washed once with PBS and fixed in 2% PFA 10 min, permeabilized with 0.1% Triton X-100/0.15 M Glycine/PBS for 10 min and extensively washed with PBS. Samples were blocked using M.O.M. Blocking reagent (Vector) for 2 h followed by additional blocking in 5% NGS/2% BSA at 4° C. over night. Primary antibodies were applied in blocking at 4° C. over night. Samples were washed extensively in PBS and secondary antibodies were applied in PBS (Alexa Flour 546, 647) for 1 h at room temperature. Following PBS washes, cross-sections were counterstained with DAPI ([…]) for 10 min and mounted with Permaflour (Fisher).
Histological Analysis of Muscle Sections. For Fiber type analysis, non-fixed samples were washed with PBS and blocked in 10% normal goat serum (NGS) for 1 hr at room temperature. Primary antibodies were applied in 10% NGS for 2 h at room temperature. Sections were washed extensively with PBS and secondary antibodies were applied in PBS for 1 h at room temperature. Following PBS washes, sections were counterstained with DAPI for 10 min and mounted with Permaflour. Antibodies were as follows: mouse anti-MyH3 (clone F1.652, DSHB), mouse anti-MyH4 (clone BF-F3, DSHB).
For analysis of myofiber Feret's diameter, non-fixed samples were washed with PBS and stained with Wheat Germ Agglutinin Alexa 647 conjugate (Fisher) for 1 h at room temperature. Samples were washed once with PBS and counterstained with DAPI. Samples were washed with PBS and mounted with Permaflour. Images were taken immediately following staining. Minimum fiber Feret measurement was performed using the SMASH software in MATLAB 2015a as described in Smith, L. R., and Barton, E. R. (2014) SMASH—semi-automatic muscle analysis using segmentation of histology: a MATLAB application. Skelet. Muscle 4, 21, which is incorporated herein by reference. Samples with significant staining artifacts were excluded from automated analyses.

[2] = tested on: dystrophin-deficient satellite stem cells; test: EDL myofiber culture, satellite stem cell divisions (mdx Myf5-Cre/R26R-eYFP); assay type: cell-based, mouse; conditions: for Average number of asymmetric divisons/fiber / Proportion of YFP- divisions that are asymmetric divisions: mdx myofibers, 42 h of culture
Description: (§1) EDL fiber Culture and siRNA Transfection. Myofiber culture was performed as described in Dumont, N. A., et al. “Dystrophin expression in muscle stem cells regulates their polarity and asymmetric division.” Nat. Med. (2015) 21:1455-63, which is incorporated herein by reference. Briefly, EDL were carefully dissected and incubated in DMEM with 2% L-glutamine, 4.5% glucose, and 110 mg/mL sodium pyruvate (Gibco) containing 0.2% collagenase I (Sigma) for 45 min. Myofibers were isolated using gentle trituration with a glass pipet. Myofibers were cultured for 36, 42, or 72 h in DMEM containing 20% FBS (Wisent), 1% chick embryo extract (MP Biomedicals), and 2.5 ng/ml bFGF (Cedarlane). For pharmacological inhibition, Lapatinib ditosylate (1 mM in DMSO; Santa
(§2) Cruz Biotechnology), PTP1b inhibitor CAS 765317-72-4 (10 mM in DMSO; Santa Cruz Biotechnologies) was added to the culture medium for a final concentration of 1 μM or 10 μM, respectively; equal dilution of DMSO was used as vehicle control.

satellite stem cells = test: EDL myofiber culture, satellite stem cell divisions (Myf5-Cre/R26R-eYFP, wild type); assay type: cell-based, mouse; conditions: for Average number of asymmetric divisons/fiber / Proportion of YFP- divisions that are asymmetric divisions: WT myofibers, 42 h of culture
Description: EGFR Signaling Regulates Asymmetric Satellite Stem Cell Divisions. To assess the role of EGFR in asymmetric division, the inventors cultured satellite cells in myofibers isolated from Extensor digitorum longus (EDL) muscles from Myf5-Cre/R26R-eYFP mice and performed both loss-of-function and gain-of-function experiments. Isolated myofibers were first cultured for 42 h with and without treatment with the Lapatinib, a specific inhibitor of EGFR signaling.
as §1, §2
Transfection of satellite cells on myofibers was performed using lipofectamine RNAimax (Life Technologies) and validated Smartpool siRNAs for EGFR, Aurka, or scramble (SCR) (Dharmacon). Two transfections were performed at 4 h and 16 h after isolation of the myofibers as described in Le Grand, et al. (2009) Wnt7a activates the planar cell polarity pathway to drive the symmetric expansion of satellite stem cells. Cell Stem Cell 4, pp 535-547, which is incorporated herein by reference. Knockdown efficiencies of the siRNA were validated in myoblasts by western blot and qRT-PCR.

[3] = 42 h culture, recombinant EGF vs vehicle, FIG. 4A

## CCc1oc2cc(S(=O)(=O)Nc3ccc(S(=O)(=O)Nc4nccs4)cc3)ccc2c1C(=O)c1cc(Br)c(O)c(Br)c1 [PTP1b inhibitor, 3-(3,5-dibromo-4-hydroxy-benzoyl)-2-ethyl-benzofuran-6-sulfonicacid-(4-(thiazol-2-ylsulfamyl)-phenyl)-amide, reference compound]
[1]; PTP1b inhibitor with cardiotoxin and again 2 days after, 10 days post injection, FIG. 13B
  fewer Myh3-expressing myofibers vs vehicle: 50%
[1]; PTP1b inhibitor, 10 days post cardiotoxin, FIG. 13C
  increase in muscle mass compared to vehicle treated controls: 14%
[1]; PTP1b inhibitor, 10 days post cardiotoxin, FIG. 13F
  numbers of satellite cells (Pax7+): increased numbers of satellite cells
[1]; PTP1b inhibitor, 10 days post cardiotoxin, FIGS. 13D and E
  increase on average in Feret's diameters of myofibers compared to control muscles: 2 fold
[2]
  Average number of asymmetric divisons/fiber: 0.463
  Proportion of YFP- divisions that are asymmetric divisions: 33.33%
Satellite stem cells
  Average number of asymmetric divisons/fiber: 0.988
  Proportion of YFP- divisions that are asymmetric divisions: 66.70%

## EGF: human recombinant EGF protein (Life Technologies), direct activator of the EGFR pathway
[1]; 10 ng recombinant EGF IM at CTX injury and 2 d after, 10 days post injury, FIG. 5B
  increase in Pax7-expressing cells: 26%
[1]; 10 ng recombinant EGF IM at CTX injury and 2 d after, 10 days post injury, FIG. 5C
  increase in the numbers of Myog-expressing cells: 50%
[1]; EGF-treated vs vehicle-injected controls, 10 days post injury
  Feret's diameter of regenerating myofibers: an increase in Feret's diameter
[2]; [3]
  increase in the rate of asymmetric division, mdx satellite cells: 67%
[2]; 42 h of myofiber culture, FIG. 4B
  increase in the absolute number of asymmetric satellite stem cell divisions, mdx: 2 fold
[2]
  Average number of asymmetric divisons/fiber: 0.436
  Proportion of YFP- divisions that are asymmetric divisions: 34.60%
Satellite stem cells; 42 h culture, recombinant EGF 100 ng/mL vs vehicle, FIG. 2A
  increase in the rate of asymmetric satellite stem cell division: 2.5 fold
Satellite stem cells; [3]
  increase in asymmetric division, WT satellite cells: 29%
Satellite stem cells
  Average number of asymmetric divisons/fiber: 0.939
  Proportion of YFP- divisions that are asymmetric divisions: 70.86%
